The source of these data is patent US20240239799A1, “(S)-1-(5-((PYRIDIN-3-YL)THIO)PYRAZIN-2-YL)-4'H,6'H-SPIRO[PIPERIDINE-4,5'-PYRROLO [1,2-B]PYRAZOL]-4'-AMINE DERIVATIVES AND SIMILAR COMPOUNDS AS SHP2 INHIBITORS FOR THE TREATMENT OF E.G. CANCER” (C.N.C.C.S. S.C.A.R.L. COLLEZIONE NAZIONALE DEI COMPOSTI …, priority 2021, published 2024).

Assay [1] has as its target T1, SHP-2 enzyme (Met1-Leu525) (Homo sapiens, UniProt Q06124).
T1 construct: synthetized by Origene, Met1-Leu525, cat #TP750155; purchased Origene TP750155
T1 sequence (Q06124 1-525): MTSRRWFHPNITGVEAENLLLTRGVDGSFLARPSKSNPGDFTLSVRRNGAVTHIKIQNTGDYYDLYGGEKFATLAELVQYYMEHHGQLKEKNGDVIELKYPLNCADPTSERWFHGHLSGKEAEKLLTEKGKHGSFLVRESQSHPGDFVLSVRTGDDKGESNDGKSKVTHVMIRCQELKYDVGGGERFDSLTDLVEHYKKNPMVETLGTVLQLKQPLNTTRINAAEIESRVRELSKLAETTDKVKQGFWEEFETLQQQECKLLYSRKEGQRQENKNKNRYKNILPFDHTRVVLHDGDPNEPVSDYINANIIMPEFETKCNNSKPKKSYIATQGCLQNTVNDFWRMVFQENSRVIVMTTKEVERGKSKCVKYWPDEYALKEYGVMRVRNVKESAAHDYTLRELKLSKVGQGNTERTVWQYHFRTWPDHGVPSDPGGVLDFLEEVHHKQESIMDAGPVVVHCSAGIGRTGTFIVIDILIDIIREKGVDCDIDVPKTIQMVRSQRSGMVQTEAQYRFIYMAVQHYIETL
In words: SHP2 inhibition enzymatic assay (DiFMUP substrate, IRS1 peptide activation). Format: biochemical. Particulars: 0.5 nM SHP-2, 500 nM IRS1 peptide, 75 μM DiFMUP; read-out: SHP2wt - IC50.

Assay [2] concerns phospho-ERK1/2 (Thr202/Tyr204) in KYSE-520 cells. In words: Phospho-ERK cellular assay (TR-FRET). Particulars: Homo sapiens, KYSE-520, 2 h, KYSE-520 cells, 2 h at 37° C.; read-out: pERK IC50. Format: cell-based. A digest of the protocol:
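KYSE-520 cells plated overnight, then exposed to compound for 2 h at 37° C and lysed. Phospho-ERK1/2 (Thr202/Tyr204) detected by TR-FRET with Eu-cryptate and D2 antibodies after overnight incubation at rt. IC50 from four-parameter fit, normalised to DMSO (0%) and no-cell (100%) controls.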
(In general: Time-resolved FRET reads energy transfer from a long-lived donor to a nearby acceptor.)

For assay [3], the target named is T2, SHP2 (Avi-G4SG4S-PTPN11(1-525)) (Homo sapiens, UniProt Q06124).
T2 construct: (Avi-G4SG4S-PTPN11(1-525)); purchased Viva Biotech Ltd
T2 sequence (Q06124 1-525): T1 sequence (Q06124 1-525)
In words: Binding kinetic assay by surface plasmon resonance (SPR). Particulars: Biacore T200, single cycle kinetic, 1:1 Langmuir binding model; for koff: triplicate. The procedure:
A binding assay for measuring SHP2 inhibitors binding kinetic was developed using a Biacore T200 Instrument (Cytiva, Sweden). […] Data analysis was performed by Biacore T200 Evaluation software (Cytiva), and kinetic parameters were evaluated by a global fitting according to a 1:1 Langmuir binding model. Each molecule was tested in triplicate on separate flow channels.

On to `Nc1nccc(Sc2cnc(N3CCC4(CC3)Cn3nc5c(c3[C@H]4N)COC5)cn2)c1Cl` [Example 27, (S)-1′-(5-((2-amino-3-chloropyridin-4-yl)thio)pyrazin-2-yl)-1,8-dihydro-3H,6H-spiro[furo[3,4-d]pyrrolo[1,2-b]pyrazole-7,4′-piperidin]-8-amine], for which the IC50 (usually the concentration that gives 50% inhibition) is at most 0.05 µM in assay [1] and under 0.1 µM in assay [2]. For the same compound, the “Residence time 1/koff SPR” value in assay [3] came to 30303 s. Further, the koff (usually a measure of how fast the partners let go of each other) in assay [3] was 3.3e-05 s⁻¹.

For the compound `Nc1nccc(Sc2cnc(N3CCC4(CC3)Cn3ncc(Cl)c3[C@H]4N)n3ccnc23)c1Cl` [Example 18, (S)-1-(8-((2-amino-3-chloropyridin-4-yl)thio)imidazo[1,2-c]pyrimidin-5-yl)-3′-chloro-4′H,6′H-spiro[piperidine-4,5′-pyrrolo[1,2-b]pyrazol]-4′-amine], the IC50 in assay [1] is at most 0.05 µM. Besides, the IC50 in assay [2] was under 0.1 µM. Further, in assay [3], the “Residence time 1/koff SPR” value was determined as 37175 s and the koff was determined as 2.69e-05 s⁻¹.

Consider `Cc1nn2c(c1Cl)[C@@H](N)C1(CCN(c3cnc(Sc4ccnc(N)c4Cl)cn3)CC1)C2` [Example 14, (S)-1-(5-((2-amino-3-chloropyridin-4-yl)thio)pyrazin-2-yl)-3′-chloro-2′-methyl-4′H,6′H-spiro[piperidine-4,5′-pyrrolo[1,2-b]pyrazol]-4′-amine], for which the IC50 in assay [1] is at most 0.05 µM. The IC50 in assay [2] was under 0.1 µM. In assay [3], the “Residence time 1/koff SPR” value was found to be 14535 s and the koff was 6.88e-05 s⁻¹.

`Nc1nccc(Sc2cnc(N3CCC4(CC3)Cn3nccc3[C@H]4N)c3cncn23)c1Cl` [Example 19, (S)-1-(5-((2-amino-3-chloropyridin-4-yl)thio)imidazo[1,5-a]pyrazin-8-yl)-4′H,6′H-spiro[piperidine-4,5′-pyrrolo[1,2-b]pyrazol]-4′-amine]: the IC50 in assay [1] was at most 0.05 µM; in assay [2], under 0.1 µM. Further, in assay [3], the “Residence time 1/koff SPR” value is reported as 5464 s. This compound also gave a koff in assay [3] of 0.000183 s⁻¹.

For `Nc1nccc(Sc2cnc(N3CCC4(CC3)Cn3nncc3[C@H]4N)cn2)c1Cl` [Example 38, (S)-1-(5-((2-amino-3-chloropyridin-4-yl)thio)pyrazin-2-yl)-4′H,6′H-spiro[piperidine-4,5′-pyrrolo[1,2-c][1,2,3]triazol]-4′-amine], the IC50 in assay [1] was at most 0.05 µM. Moreover, the IC50 in assay [2] was under 0.1 µM. For the same compound, in assay [3], the “Residence time 1/koff SPR” value amounted to 1062 s and the koff was 0.000942 s⁻¹.

As to `Cc1cc2n(n1)CC1(CCN(c3ncc(Sc4ccnc(N)c4Cl)n4cncc34)CC1)[C@@H]2N` [Example 23, (S)-1-(5-((2-amino-3-chloropyridin-4-yl)thio)imidazo[1,5-a]pyrazin-8-yl)-2′-methyl-4′H,6′H-spiro[piperidine-4,5′-pyrrolo[1,2-b]pyrazol]-4′-amine], in assay [1], the IC50 was at most 0.05 µM. Also, the IC50 in assay [2] was under 0.1 µM. In assay [3], the “Residence time 1/koff SPR” value worked out at 6536 s and the off-rate constant (koff) was found to be 0.000153 s⁻¹.

`Nc1nccc(Sc2cnc(N3CCC4(CC3)Cn3ncc(Cl)c3[C@H]4N)cn2)c1Cl` [Example 7, (S)-1-(5-((2-amino-3-chloropyridin-4-yl)thio)pyrazin-2-yl)-3′-chloro-4′H,6′H-spiro[piperidine-4,5′-pyrrolo[1,2-b]pyrazol]-4′-amine]: the IC50 in assay [1] is at most 0.05 µM. In addition, the IC50 in assay [2] was under 0.1 µM. For the same compound, in assay [3], the “Residence time 1/koff SPR” value turned out to be 3185 s and the koff was 0.000314 s⁻¹.

As for `Cn1cc2c(Cl)c(Sc3cnc(N4CCC5(CC4)Cn4nccc4[C@H]5N)n4ccnc34)ccc2n1` [Example 16, (S)-1-(8-((4-chloro-2-methyl-2H-indazol-5-yl)thio)imidazo[1,2-c]pyrimidin-5-yl)-4′H,6′H-spiro[piperidine-4,5′-pyrrolo[1,2-b]pyrazol]-4′-amine], the figures for the IC50 in assay [1] and in assay [2] were at most 0.05 µM and under 0.1 µM, respectively. Also, the “Residence time 1/koff SPR” value in assay [3] worked out at 16026 s. For the same compound, the koff in assay [3] stood at 6.24e-05 s⁻¹.

In the case of `Nc1nccc(Sc2cnc(N3CCC4(CC3)Cn3nc5c(c3[C@H]4N)COC5)c3cncn23)c1Cl` [Example 29, (S)-1′-(5-((2-amino-3-chloropyridin-4-yl)thio)imidazo[1,5-a]pyrazin-8-yl)-1,8-dihydro-3H,6H-spiro[furo[3,4-d]pyrrolo[1,2-b]pyrazole-7,4′-piperidin]-8-amine], the IC50 in assay [1] is at most 0.05 µM. Also, in assay [2], the IC50 is over 0.5 µM. In assay [3], the “Residence time 1/koff SPR” value is given as 1715 s and the koff was 0.000583 s⁻¹.

Consider `N[C@@H]1c2c(F)cnn2CC12CCN(c1cnc(Sc3ccn4ccnc4c3Cl)cn1)CC2` [Example 49, (S)-1-(5-((8-chloroimidazo[1,2-a]pyridin-7-yl)thio)pyrazin-2-yl)-3′-fluoro-4′H,6′H-spiro[piperidine-4,5′-pyrrolo[1,2-b]pyrazol]-4′-amine], for which the IC50 in assay [1] is at most 0.05 µM. For the same compound, in assay [2], the IC50 was under 0.1 µM. In assay [3], the “Residence time 1/koff SPR” value turned out to be 14493 s and the koff amounted to 6.9e-05 s⁻¹.

In the case of `Cc1cc2n(n1)CC1(CCN(c3cnc(Sc4ccnc(N)c4Cl)cn3)CC1)[C@@H]2N` [Example 11, (S)-1-(5-((2-amino-3-chloropyridin-4-yl)thio)pyrazin-2-yl)-2′-methyl-4′H,6′H-spiro[piperidine-4,5′-pyrrolo[1,2-b]pyrazol]-4′-amine], the IC50 in assay [1] was at most 0.05 µM. In addition, the IC50 in assay [2] is under 0.1 µM. In addition, in assay [3], the “Residence time 1/koff SPR” value came to 29412 s and the koff is 3.4e-05 s⁻¹.

Regarding `Nc1nccc(Sc2cnc(N3CCC4(CC3)Cn3ncc(Br)c3[C@H]4N)cn2)c1Cl` [Example 8, (S)-1-(5-((2-amino-3-chloropyridin-4-yl)thio)pyrazin-2-yl)-3′-bromo-4′H,6′H-spiro[piperidine-4,5′-pyrrolo[1,2-b]pyrazol]-4′-amine], the IC50 in assay [1] was at most 0.05 µM; in assay [2] it was under 0.1 µM. In assay [3], the “Residence time 1/koff SPR” value was determined as 8621 s. The compound further had a koff in assay [3] of 0.000116 s⁻¹.

With `Nc1nccc(Sc2cnc(N3CCC4(CC3)Cn3nc5c(c3[C@H]4N)CCC5)c3cncn23)c1Cl` [Example 21, (S)-1′-(5-((2-amino-3-chloropyridin-4-yl)thio)imidazo[1,5-a]pyrazin-8-yl)-1,2,3,8-tetrahydro-6H-spiro[cyclopenta[d]pyrrolo[1,2-b]pyrazole-7,4′-piperidin]-8-amine], the IC50 in assay [1] was at most 0.05 µM. In addition, in assay [2], the IC50 was under 0.1 µM. Further, in assay [3], the “Residence time 1/koff SPR” value is given as 12903 s and the koff stood at 7.75e-05 s⁻¹.
